Measurements as given in patent US7045515B2, “β-lactam compounds process for reproducing the same and serum cholesterol-lowering agents containing the same” (Kotobuki Pharmaceutical Co., Ltd., priority 2001, dated 2006).
Read-outs that look alike come from different tables or passages of the source.

Key:
[1] = test system: hypercholesterolemic hamster; test: Hypocholesterolemic activity in hamsters fed a 0.5%-cholesterol diet; type: in vivo; conditions: Mesocricetus auratus, po, negative = hypocholesterolemic action, read-out: Serum cholesterol (%); for change in vivo at 3 mg/kg: 3 mg/kg orally daily; for change in vivo at 20 mg/kg: 20 mg/kg orally daily; for change in vivo at 10 mg/kg: 10 mg/kg orally daily; for change in vivo at 0.3 mg/kg: 0.3 mg/kg orally daily
Protocol: [Hypocholesterolemic Agents Using the Hypercholesterolemic Hamster]
Hamsters were derived into groups with 3 animals per group and fed a 0.5%-cholesterol containing CE-2 diet (CLEA Japan Inc.) for 4 or 7 days. The normal dietary group were fed a standard CE-2 during the experiment. Each compound or vehicle (0.2 mL of corn oil) per 100 g body weight was orally administered daily for 4 or 7 days from the day that high-cholesterol diet was started. At 20 hr after the final administration, blood samples were collected from the abdominal aorta of non-fasted animals under anesthesia with diethylether. Serum cholesterol was measured by enzymatic method using cholesterol E-test wako (Wako Pure Chemical Industries). Activity of the test compounds is expressed as percent reduction of the test compound on the basis of comparison with rised total cholesterol treated only with no-treatment-high-cholesterol diet. The test compounds with the optical rotation value in the compounds 1–58 were evaluated as the chiral compounds.

[2] = test system: α-N-acetyl-D-galactosaminidase; test: Biological stability test against glycosidase (remaining substrate by NMR); type: in vitro ADME; conditions: for remaining substrate: α-N-acetyl galactosaminidase 0.32 unit, citric acid buffer pD=3, 35° C.
Protocol: [Biological Stability Test]
To evaluate the stability of C-glycoside, the biological stability of C-allyl derivative (A) and O-allyl derivative (B) against to α-N-acetyl-D-galactosaminidase as glycosidase ware compared according to Mark von Itzstein's method (Org. Lett., 1999, 1, 443–446).
[drawing 118] • enzyme; α-N-acetyl galactosaminidase 0.32 unit (1.69 unit/mL 0.1% BSA containing 0.5M sodium citrate buffer) • solvent; citric acid buffer (pD=3) 0.6 mL • temperature; 35° C. • procedure; Substrate (2 mg) was dissolved in citric acid buffer (0.6 mL) and α-N-acetyl galactosaminidase (0.32 unit) was added. NMR spectrum was determined in every constant time and the content of the remaining substrates were determined.

[3] = 168 h, dosage day 7, changed percent vs rise in total cholesterol on high-cholesterol diet
[4] = 96 h, dosage day 4, changed percent

O=C1[C@H](CCCc2ccc(F)cc2)[C@@H](c2ccc(C[C@@H]3O[C@H](CO)[C@@H](O)[C@H](O)[C@H]3O)cc2)N1c1ccc(F)cc1 (relative stereo) [Compound 2, (4S*,3R*)-4-(4-{[(2S,5S,3R,4R,6R)-3,4,5-Trihydroxy-6-(hydroxymethyl)perhydro-2H-pyran-2-yl]methyl}phenyl)-1-(4-fluorophenyl)-3-[3-(4-fluorophenyl)propyl]azetidine-2-one]
change in vivo at 3 mg/kg [1, 3]: -120% | melting point: 110 to 112 °C

CC(=O)OC[C@H]1O[C@@H](Cc2ccc([C@@H]3[C@@H](CCOc4ccc(F)cc4)C(=O)N3c3ccc(F)cc3)cc2)[C@H](OC(C)=O)[C@@H](OC(C)=O)[C@@H]1OC(C)=O (relative stereo) [Compound 13, (3S,2R,4R,5R,6R)-2-[(4-{(4S*,3R*)-1-(4-Fluorophenyl)-3-[2-(4-fluorophenoxy)ethyl]-2-oxoazetidine-4-yl}phenyl)methyl]-4,5-diacetyloxy-6-(acetoxymethyl)perhydro-2H-pyran-3-ylacetate]
change in vivo at 20 mg/kg [1, 4]: -28% | melting point: 64 to 66 °C

O=C1[C@H](CCOc2ccc(F)cc2)[C@@H](c2ccc(OCC3O[C@H](CO)[C@@H](O)[C@H](O)[C@H]3O)cc2)N1c1ccc(F)cc1 (relative stereo) [Compound 15, (4S*,3R*)-4-(4-{[(4S,5S,2R,3R,6R)-3,4,5-Trihydroxy-6-(hydroxymethyl)perhydro-2H-pyran-2-yl]methoxy}phenyl)-1-(4-fluorophenyl)-3-[2-(4-fluorophenoxy)ethyl]azetidine-2-one]
change in vivo at 20 mg/kg [1, 4]: -21% | melting point: 64 to 65 °C

O=C1[C@H](CC[C@H](O)c2ccc(C3OC(CO)C(O)C(O)C3O)cc2)C(c2ccc(F)cc2)N1c1ccc(F)cc1 (stereo in doubt) [Compound 49, 3-((3S)-(4-[(2S,5S,3R,4R,6R)-3,4,5-Trihydroxy-6-(hydroxymethyl)perhydro-2H-pyran-2-yl]phenyl}-3-hydroxypropyl)(4S,3R)-1,4-bis(4-fluorophenyl)azetidine-2-one]
change in vivo at 10 mg/kg [1, 4]: -55% | melting point: 111 to 113 °C

C=CC[C@H]1O[C@H](CO)[C@H](O)[C@H](O)[C@H]1NC(C)=O [A]
effect of enzyme on substrate (degradation) ([2]; after 24 h): unaffected by enzyme | remaining substrate ([2]; time 2): 100 | remaining substrate ([2]; time 4): 100 | remaining substrate ([2]; time 6): 100 | remaining substrate ([2]; time 8): 100 | remaining substrate ([2]; time 10): 100 | remaining substrate ([2]; time 12): 100 | remaining substrate ([2]; time 18): 100 | remaining substrate ([2]; time 24): 100

O=C1[C@H](CC[C@H](O)c2ccc(F)cc2)[C@@H](c2ccc(C[C@@H]3O[C@H](CO)[C@@H](O)[C@H](O)[C@H]3O)cc2)N1c1ccccc1 [Compound 23, (4S,3R)-3-[(3S)-3-(4-Fluorophenyl)-3-hydroxypropyl]-4-(4-{[(2S,5S,3R,4R,6R)-3,4,5-trihydroxy-6-(hydroxymethyl)perhydro-2H-pyran-2-yl]methyl}phenyl)-1-phenylazetidine-2-one]
change in vivo at 3 mg/kg [1, 3]: -177% | melting point: 104 to 106 °C

Cc1ccc(N2C(=O)[C@H](CC[C@H](O)c3ccc(F)cc3)[C@H]2c2ccc(C[C@@H]3O[C@H](CO)[C@@H](O)[C@H](O)[C@H]3O)cc2)cc1 [Compound 24, (4S,3R)-3-[(3S)-3-(4-Fluorophenyl)-3-hydroxypropyl]-4-(4-{[(2S,5S,3R,4R,6R)-3,4,5-trihydroxy-6-(hydroxymethyl)perhydro-2H-pyran-2-yl]methyl}phenyl)-1-(4-methylphenyl)azetidine-2-one]
change in vivo at 3 mg/kg [1, 3]: -156% | melting point: 102 to 104 °C

Cc1ccc(N2C(=O)[C@H](CCC(=O)c3ccc(F)cc3)[C@H]2c2ccc(C[C@@H]3O[C@H](CO)[C@@H](O)[C@H](O)[C@H]3O)cc2)cc1 [Compound 28, (4S,3R)-4-(4-{[(2S,5S,3R,4R,6R)-3,4,5-Trihydroxy-6-(hydroxymethyl)perhydro-2H-pyran-2-yl]methyl}phenyl)-1-(4-methylphenyl)-3-[3-(4-fluorophenyl)-3-oxopropyl]azetidine-2-one]
change in vivo at 3 mg/kg [1, 3]: -130% | melting point: 86 to 88 °C

O=C(O)[C@H]1O[C@@H](Cc2ccc([C@@H]3[C@@H](CC[C@H](O)c4ccc(F)cc4)C(=O)N3c3ccc(F)cc3)cc2)[C@H](O)[C@@H](O)[C@@H]1O [Compound 33]
change in vivo at 3 mg/kg [1, 4]: -67% | melting point: 82 to 84 °C

O=C1[C@H](CC[C@H](O)c2ccc(F)cc2)[C@@H](c2ccc(F)cc2)N1c1ccc(C[C@@H]2O[C@H](CO)[C@@H](O)[C@H](O)[C@H]2O)cc1 [Compound 38, (4S,3R)-3-[(3S)-3-(4-Fluorophenyl)-3-hydroxypropyl]-1-(4-{[(2S,5S,3R,4R,6R)-3,4,5-trihydroxy-6-(hydroxymethyl)perhydro-2H-pyran-2-yl]methyl}phenyl)-1-(4-fluorophenyl)azetidine-2-one]
change in vivo at 10 mg/kg [1, 4]: -2% | melting point: 200 to 201 °C

O=C1[C@H](CC[C@H](O)c2ccc(F)cc2)[C@@H](c2ccc(/C=C/[C@@H]3O[C@H](CO)[C@@H](O)[C@H](O)[C@H]3O)cc2)N1c1ccc(F)cc1 [Compound 45, (4S,3R)-3-[(3S)-3-(4-Fluorophenyl)-3-hydroxypropyl]4-(4-{[(2S,5S,3R,4R,6R)-3,4,5-trihydroxy-6-(hydroxymethyl)perhydro-2H-pyran-2-yl]ethene}phenyl)-1-(4-fluorophenyl)azetidine-2-one]
change in vivo at 3 mg/kg [1, 4]: -136% | melting point: 84 to 86 °C

O=C1[C@H](CC[C@H](O)c2ccc(F)cc2)[C@@H](c2ccc(CC[C@@H]3O[C@H](CO)[C@@H](O)[C@H](O)[C@H]3O)cc2)N1c1ccc(F)cc1 [Compound 46, (4S,3R)-3-[(3S)-3-(4-Fluorophenyl)-3-hydroxypropyl]4-(4-([(2S,5S,3R,4R,6R)-3,4,5-trihydroxy-6-(hydroxymethyl)perhydro-2H-pyran-2-yl]ethyl}phenyl)-1-(4-fluorophenyl)azetidine-2-one]
change in vivo at 3 mg/kg [1, 4]: -147% | melting point: 153 to 155 °C

O=C1[C@H](CC[C@H](O)c2ccc(F)cc2)[C@@H](c2ccc(CC[C@@H]3O[C@H](CO)[C@@H](O)[C@H](O)[C@H]3O)cc2)N1c1ccccc1 [Compound 56]
change in vivo at 0.3 mg/kg [1, 4]: -84% | melting point: 82 to 84 °C

Cc1ccc(N2C(=O)[C@H](CC[C@H](O)c3ccc(F)cc3)[C@H]2c2ccc(CC[C@@H]3O[C@H](CO)[C@@H](O)[C@H](O)[C@H]3O)cc2)cc1 [Compound 57]
change in vivo at 0.3 mg/kg [1, 4]: -81.3% | melting point: 116 to 118 °C
